Results on 1 compound are retold here after patent publication US7244731B2, “6-Methylpyridine derivatives, method for preparing thereof and antiviral pharmaceutical composition comprising the same” (B & C Biopharm, priority 2002, dated 2007).

Data set [1] in a line: Cytotoxicity assay (MTT assay). The class given is cell-based. Particulars: human, HepG2 cells, HepG 2 cell line. The procedure: To find out cytotoxicity of 6-methylpyridine derivative of the chemical formula 1, an in vitro experiment was conducted on the basis of the generally known MTT assay using HepG 2 cell line.
A general note: Tetrazolium dyes change colour on reduction, which living cells bring about.

In data set [2] the target is T1, HCV RNA polymerase (RNA dependent RNA polymerase, NS5B) (Hepatitis C virus genotype 1b, UniProt P26663).
T1 construct: NS5B region (1773 bps) was amplified by PCR and cloned into pVLHIS; (His)6; made in house; host or cells: Sf9 insect cells infected with recombinant baculovirus (pVLHIS-NS5B)
T1 sequence (P26663 2420-3010): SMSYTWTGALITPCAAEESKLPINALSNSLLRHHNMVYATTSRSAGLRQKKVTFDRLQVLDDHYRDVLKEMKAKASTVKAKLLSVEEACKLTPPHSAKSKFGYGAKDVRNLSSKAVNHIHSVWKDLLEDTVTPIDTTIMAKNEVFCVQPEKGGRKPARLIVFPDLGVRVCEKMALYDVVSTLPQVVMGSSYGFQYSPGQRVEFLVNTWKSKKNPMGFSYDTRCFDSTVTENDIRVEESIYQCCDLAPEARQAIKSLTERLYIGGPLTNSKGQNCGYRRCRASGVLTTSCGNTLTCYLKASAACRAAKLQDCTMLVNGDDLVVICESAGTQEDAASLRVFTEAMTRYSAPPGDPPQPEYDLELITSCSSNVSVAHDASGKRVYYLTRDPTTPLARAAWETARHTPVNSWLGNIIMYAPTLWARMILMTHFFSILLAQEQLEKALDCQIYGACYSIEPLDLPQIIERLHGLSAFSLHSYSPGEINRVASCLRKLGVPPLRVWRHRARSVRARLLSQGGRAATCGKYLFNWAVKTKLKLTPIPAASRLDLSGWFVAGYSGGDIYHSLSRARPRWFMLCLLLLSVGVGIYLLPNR
Nature of the data set: Inhibitory effect on activity of recombinant HCV RNA polymerase in vitro. The class given is biochemical, Hepatitis C virus (HCV-1b type). The procedure:
Test of Inhibitory Effect on Activity of HCV RNA Polymerase (RNA Dependent RNA Polymerase, NS5B) In Vitro
The following in vitro experiments were conducted to find out the effect of inhibition activity of compounds of the present invention against HCV RNA Polymerase (RNA dependent RNA polymerase, NS5B).
HCV cDNA was obtained from the blood of HCV-1b type HCV patient and NS5B region (1773 bps) was amplified by PCR and cloned into pVLHIS, a baculovirus transfer vector, to prepare recombinant transfer vector. The prepared transfer vector and the wild-type AcNPV vector were cotransfected into Sf 9 cell line to yield recombinant baculovirus with the histidine-tagged recombinant vector pVLHIS-NS5B. Sufficiently cultured insect cells were infected with the resulting recombinant baculovirus and cultured in Grace' medium containing 10% FBS for 3–4 days. The culture broth was centrifuged to obtain only the infected cells. The cells were washed three times with PBS and resuspended in binding buffer [50 mM Na-phosphate (pH 8.0), 30 mM NaCl, 10 mM imidazole, 1 mM DTT, 10% glycerol, 1% NP-40], sonicated and the clearized lysate was obtained. Recombinant NS5B was purified by affinity column chromatography using a Ni-NTA His bind resin (Novagen) to produce pure NS5B protein. The (His)6-tagged NS5B was bound to Ni-NTA resin and washed with the binding buffer containing 50 mM imidazole. The bound NS5B was eluted with the binding buffer containing imidazole in a step-gradient manner (100–300 mM). The NS5B protein fractions were dialyzed against buffer [50 mM Tris-HCl, 50 mM NaCl, 1 mM DTT, […], 10% glycerol], followed by at −70° C. in a small aliquot.
The 3′UTR cDNA (220 bp) of HCV was obtained from 1b HCV RNA of the blood of a hepatitis C patient by PCR and cloned into pcDNA3 vector. Linearized DNA fragment containing 3′-UTR was prepared using the restriction enzyme, EcoRI and used as a temperate for in vitro transcription using T7 RNA ploymerase to prepare RNA fragment containing 3′-UTR.
In Vitro inhibitory activity of the compounds of the present invention against recombinant HCV RNA polymerase was measured as follows.
A streptavidin-coated well plate was prepared suitable for the sample to be examined. 25 μl of 2× assay buffer [50 mM Tris-Cl (pH 7.5), 100 mM NaCl, 10 mM MgCl2, 20 mM KCl, 1 mM EDTA, 1 mM DTT] and 10 μl of purified HCV RNA polymerase 200 ng and 3′-UTR template RNA were added to each well. Then, 5 μl of the sample to be examined was added to have final concentrations of 10, 1, 0.1 and 0.01 μg/mL. […] The optical density (OD) was measured using an ELISA reader (Bio-Tek instrument Co.) at 405 nm. The inhibitory effect on the activity of HCV polymerase was calculated by subtracting the OD of the positive control without the sample.

Broadly, the CC50 is the concentration at which the toxic effect on the cells reaches its halfway point. On to `Cc1ccc(C(=O)O)c(Nc2ccc(N3CCOCC3)cc2)n1` [Example 1, 6-methyl-2-[4-(4-morpholino)anilino] nicotinic acid], for which the CC50 in data set [1] is greater than 100 µg/mL. Also, the “Inhibition of activity of HCV RNA polymerase (%)” value in data set [2] (0.01 μg/ml) is recorded as 46%; in data set [2] (0.1 μg/ml), 65%; in data set [2] (1 μg/ml), 82%; in data set [2] (10 μg/ml), 99%.
